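Compound exposure: 48 hours, 5 concentrations, 96-well plates. The concentration for 50% growth inhibition is given as GI50. TGI denotes the concentration required for complete inhibition of growth.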
Columns and labels:
Experiment in all cases: NCI tumour cell line growth inhibition, 48 h
[1] = tested on: NCI-H522 lung
[2] = tested on: HOP-62 NSCLC
[3] = tested on: HCT-15 colon
[4] = tested on: NCI-H460 lung
[5] = tested on: SN12C renal
[6] = tested on: HT29 colon
[7] = tested on: CCRF-CEM leukemia
[8] = tested on: K-562 leukemia
[9] = tested on: NCI/ADR-RES ovarian
[10] = tested on: SK-MEL-2 melanoma

C=CCOC(C)(C)C1=CCC(C)CC1 (stereo not drawn)
TGI [1]: > 100 µM | TGI [2]: > 100 µM | TGI [3]: > 100 µM | TGI [4]: > 100 µM | TGI [5]: > 100 µM | TGI [6]: > 100 µM

O=C(OCCN=c1c2ccccc2ccc2ccccc12)c1cc([N+](=O)[O-])cc([N+](=O)[O-])c1
TGI [7]: > 100 µM | TGI [2]: > 100 µM | TGI [3]: > 100 µM | TGI [4]: > 100 µM | TGI [8]: > 100 µM | TGI [9]: > 100 µM | TGI [10]: > 100 µM | TGI [5]: > 100 µM | TGI [6]: > 100 µM

O=C(O)C1CCC(=O)N1C(=O)COc1cc(Cl)c(Cl)cc1Cl (stereo not drawn)
TGI [1]: > 100 µM | TGI [3]: > 100 µM | TGI [4]: > 100 µM | TGI [5]: > 100 µM | TGI [6]: > 100 µM

O=C(/C=C\c1ccccc1)Oc1ccc(/C=C2\CCC/C(=C\c3ccc(OC(=O)/C=C\c4ccccc4)cc3)C2=O)cc1
TGI [1]: > 100 µM | TGI [7]: > 100 µM | TGI [2]: > 100 µM | TGI [3]: > 100 µM | TGI [4]: > 100 µM | TGI [9]: > 100 µM | TGI [10]: > 100 µM | TGI [5]: > 100 µM | TGI [6]: > 100 µM

Cc1ccc(NC(=O)CC/C(CC(=O)C(C)(C)C)=N/NC(=O)c2cc3ccccc3cc2O)cc1C
TGI [7]: 70.1 µM | TGI [2]: > 100 µM | TGI [3]: > 100 µM | TGI [4]: > 100 µM | TGI [10]: > 100 µM | TGI [5]: > 100 µM | TGI [6]: > 100 µM

Cc1ccc(S(=O)(=O)OCCN(CCOS(=O)(=O)c2ccc(C)cc2)c2ccc(C=O)cc2)cc1
TGI [1]: 34.1 µM | TGI [7]: > 100 µM | TGI [3]: > 100 µM | TGI [4]: 48.6 µM | TGI [8]: > 100 µM | TGI [9]: > 100 µM | TGI [10]: 40.1 µM | TGI [6]: > 100 µM

COc1ccc(/C(C=O)=C(\Cl)c2ccc(OC)c(OC)c2)cc1
TGI [1]: 33.5 µM | TGI [7]: > 100 µM | TGI [2]: > 100 µM | TGI [3]: > 100 µM | TGI [4]: > 100 µM | TGI [8]: > 100 µM | TGI [10]: > 100 µM | TGI [5]: > 100 µM | TGI [6]: > 100 µM

CC(C)(C)C(=O)c1c(O)c2ccccc2c2ccccc2c1=O
TGI [1]: > 100 µM | TGI [7]: > 100 µM | TGI [2]: > 100 µM | TGI [3]: > 100 µM | TGI [4]: > 100 µM | TGI [10]: > 100 µM | TGI [5]: > 100 µM | TGI [6]: > 100 µM

CCC12CCC[C@@]13C=C[C@H](O3)C(C)(C)C2=O (stereo partly drawn)
TGI [1]: > 100 µM | TGI [7]: > 100 µM | TGI [2]: > 100 µM | TGI [3]: > 100 µM | TGI [4]: > 100 µM | TGI [8]: > 100 µM | TGI [10]: > 100 µM | TGI [5]: > 100 µM | TGI [6]: > 100 µM

NCCCNc1nc2ccccc2c2c(=O)c3cc(Cl)ccc3sc12
GI50 [1]: 1.66 µM | TGI [1]: 3.14 µM | GI50 [10]: 1.99 µM | TGI [10]: 3.69 µM | GI50 [5]: 1.63 µM | TGI [5]: 3.07 µM | GI50 [6]: 1.72 µM | TGI [6]: 3.18 µM
